The conditions of data set [1]: steady-state, trough sample (pre-dose), on average; cited from earlier work.
In data set [2] the test system is MOG-induced EAE in female C57BL/6J mice. The data set is classed as in vivo, mouse.
Data set [3] has the same test system. Put plainly: Histological analysis of spinal cord (H&E) of EAE mice: severity score and white matter damage. The data set is classed as in vivo, mouse. An excerpt:
EXAMPLE. Histological Analysis of mice treated with pirlindole (BVA-201). Briefly, all samples are longitudinal sections of the vertebral column and spinal cord stained with hematoxylin and eosin (H&E). Sample A is the cranial part of the vertebral column and sample B is the caudal part. The modifiers F-focal, MF-multifocal, and D-diffuse are used to describe the distribution of inflammatory cellular infiltration. Diffuse is used when the lesion is continuous (at least on one side) and affects the entire SC. In some cases the lesion affects the entire SC (100%) but its distribution is multifocal because it is not contiguous i.e. there are small unaffected segments on one side, which are affected on the contralateral side. Histology analysis refers to 2 parameters: (a) Severity Score which is referring mainly but not limited to infiltration on inflammatory cells; and (b) White Matter Damage (WMD). Codes: Dist—distribution; GM—gray matter; IC—inflammatory cells; ND—not done; SC—spinal cord; Sev—severity; WM—white matter; WMD—white matter damage; WNL—within normal limits. Severity scores 0—WNL, 1—minimal, 2—mild, 3—moderate, 4—severe. Half grades are also used. Severity refers to the amount of inflammatory infiltration and WMD. If there is a discrepancy in the grade of these 2 changes, then this is noted. The extent of WMD is indicated in percentage referring to the amount of affected spinal cord tissue in the sample. In many cases the damage affected one side (dorsal or ventral) of the SC only. In some cases, when the plane of section is more lateral the WMD affects both sides. The available SC sample is considered 100%. Thus, if in a 5 cm long SC, there are changes in a 0.5 cm long segment, then this was noted as 10% irrespective of whether the damage affected one side or both. Although not reflected in the percentage, the extent of the lesion is taken into consideration in evaluation of the severity. WMD describes a set of changes including vacuolation, gliosis, and presence of myelin debris. […]

Like-named read-outs stand apart in the source and are kept apart here.

Consider `Clc1ccc2c(c1)N=C(N1CCNCC1)c1ccccc1N2` [Norclozapine], for which, in data set [1], the “Metabolite concentration as share of the clozapine concentration in plasma” value is on record as roughly 70%.
With `Cc1ccc2c(c1)c1c3n2CCNC3CCC1` (stereo not shown) [Pirlindole, 2,3,3a,4,5,6-hexahydro-8-methyl-1H-pyrazino[3,2,1-j,k]carbazole], the “Activity on EAE clinical score compared to the vehicle-only treatment group (A)” value in data set [2] (group C, 1.0 mg/kg IP once daily, at the end of the study) is “not statistically significant”; in data set [2] (group C, 1.0 mg/kg IP once daily, intermediate time points on days 30, 31, and 32, p<0.05) it was “statistically significant”; in data set [2] (group E, 10 mg/kg IP once daily from day 0, p<0.01, starting at day 15 and continuing throughout the study (day 23, p<0.05), FIG. 1), “statistically significant”. Besides, the “Demyelination / myelin repair compared to the vehicle-only treatment group” value in data set [3] (BVA-201 treatment group, general statement) is “one or more of (a) less demyelination, (b) improved myelin repair, and/or (c) remyelination”. For the same molecule, in data set [3] (group F, 30 mg/kg IP, FIG. 5), the “Histology mean % of white matter damage (WMD)” value was “significant protective effect”. Besides, the “Histology mean group severity score (inflammatory infiltration) versus vehicle” value in data set [3] (groups C (1 mg/kg) and F (30 mg/kg) IP, FIG. 3) was “No difference”.
